Assay results reported in US12685735B2 (Foghorn Therapeutics Inc., priority 2020, dated 2026).
Read-outs that look alike come from different tables or passages of the source.

Experiments:
[1] = molecular target: BRG-1 (Homo sapiens, UniProt P51532); test: ATPase catalytic activity assay of BRG-1 (ADP-Glo); type: biochemical; settings: ATPase catalytic activity, ADP-Glo; for Emax: read-out: BRG1 Max % Inhibition
Summary of the method: (§1)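 Once the enzyme reaction finished, residual ATP is removed with ADP-Glo Reagent over 40 minutes at room temperature. Kinase Detection Reagent then converts product ADP into ATP during a 60-minute room-temperature incubation, and the luciferase signal is read.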

[2] = molecular target: BRM (Homo sapiens, UniProt P51531); test: ATPase catalytic activity assay of BRM (ADP-Glo); type: biochemical
Summary of the method: as §1

[3] = 30 nM BRG-1, 400 μM ATP, read-out: BRG1 IC50 (μM)*
[4] = 30 nM BRM, 400 μM ATP, read-out: BRM IC50 (μM)*

Chain of BRM (P51531 whole entry): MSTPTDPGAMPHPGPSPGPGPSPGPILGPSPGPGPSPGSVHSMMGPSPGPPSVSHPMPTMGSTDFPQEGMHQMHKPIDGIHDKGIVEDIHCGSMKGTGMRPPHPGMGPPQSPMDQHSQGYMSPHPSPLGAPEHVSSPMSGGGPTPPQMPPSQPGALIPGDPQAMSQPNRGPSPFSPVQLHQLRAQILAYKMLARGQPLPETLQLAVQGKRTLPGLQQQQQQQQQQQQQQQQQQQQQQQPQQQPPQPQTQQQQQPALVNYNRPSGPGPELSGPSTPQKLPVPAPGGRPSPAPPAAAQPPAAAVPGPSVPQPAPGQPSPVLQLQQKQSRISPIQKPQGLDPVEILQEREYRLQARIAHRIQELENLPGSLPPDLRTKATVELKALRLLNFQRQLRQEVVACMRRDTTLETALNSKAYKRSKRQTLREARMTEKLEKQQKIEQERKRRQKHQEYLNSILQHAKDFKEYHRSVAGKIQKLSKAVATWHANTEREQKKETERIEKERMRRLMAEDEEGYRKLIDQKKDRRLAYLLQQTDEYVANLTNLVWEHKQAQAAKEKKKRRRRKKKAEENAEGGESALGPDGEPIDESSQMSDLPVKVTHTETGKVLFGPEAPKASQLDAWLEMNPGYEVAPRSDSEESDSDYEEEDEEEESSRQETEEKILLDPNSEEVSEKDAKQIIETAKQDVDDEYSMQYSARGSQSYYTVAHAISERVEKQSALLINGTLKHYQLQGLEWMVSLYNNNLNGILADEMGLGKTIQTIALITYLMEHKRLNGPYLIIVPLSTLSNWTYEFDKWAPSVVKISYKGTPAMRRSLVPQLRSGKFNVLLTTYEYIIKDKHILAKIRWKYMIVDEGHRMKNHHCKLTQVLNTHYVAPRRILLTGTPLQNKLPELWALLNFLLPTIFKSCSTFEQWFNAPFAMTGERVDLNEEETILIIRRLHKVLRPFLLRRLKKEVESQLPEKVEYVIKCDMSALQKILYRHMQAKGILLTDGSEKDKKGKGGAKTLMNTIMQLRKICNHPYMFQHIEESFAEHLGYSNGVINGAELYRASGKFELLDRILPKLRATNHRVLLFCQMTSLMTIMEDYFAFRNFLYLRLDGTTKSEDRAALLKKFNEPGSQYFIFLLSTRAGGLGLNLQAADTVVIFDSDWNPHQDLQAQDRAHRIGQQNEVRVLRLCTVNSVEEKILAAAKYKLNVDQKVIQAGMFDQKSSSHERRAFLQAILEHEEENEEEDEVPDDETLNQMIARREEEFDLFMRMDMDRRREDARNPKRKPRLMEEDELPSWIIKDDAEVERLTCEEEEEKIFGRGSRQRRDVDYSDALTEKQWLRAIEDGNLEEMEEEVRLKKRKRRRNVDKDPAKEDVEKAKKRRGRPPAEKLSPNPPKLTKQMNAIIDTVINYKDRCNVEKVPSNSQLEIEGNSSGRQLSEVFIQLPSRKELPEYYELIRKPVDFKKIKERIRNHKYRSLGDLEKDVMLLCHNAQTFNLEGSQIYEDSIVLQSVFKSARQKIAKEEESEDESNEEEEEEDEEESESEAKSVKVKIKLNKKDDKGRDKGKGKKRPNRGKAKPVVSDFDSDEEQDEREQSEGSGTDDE
Chain of BRG-1 (P51532 whole entry): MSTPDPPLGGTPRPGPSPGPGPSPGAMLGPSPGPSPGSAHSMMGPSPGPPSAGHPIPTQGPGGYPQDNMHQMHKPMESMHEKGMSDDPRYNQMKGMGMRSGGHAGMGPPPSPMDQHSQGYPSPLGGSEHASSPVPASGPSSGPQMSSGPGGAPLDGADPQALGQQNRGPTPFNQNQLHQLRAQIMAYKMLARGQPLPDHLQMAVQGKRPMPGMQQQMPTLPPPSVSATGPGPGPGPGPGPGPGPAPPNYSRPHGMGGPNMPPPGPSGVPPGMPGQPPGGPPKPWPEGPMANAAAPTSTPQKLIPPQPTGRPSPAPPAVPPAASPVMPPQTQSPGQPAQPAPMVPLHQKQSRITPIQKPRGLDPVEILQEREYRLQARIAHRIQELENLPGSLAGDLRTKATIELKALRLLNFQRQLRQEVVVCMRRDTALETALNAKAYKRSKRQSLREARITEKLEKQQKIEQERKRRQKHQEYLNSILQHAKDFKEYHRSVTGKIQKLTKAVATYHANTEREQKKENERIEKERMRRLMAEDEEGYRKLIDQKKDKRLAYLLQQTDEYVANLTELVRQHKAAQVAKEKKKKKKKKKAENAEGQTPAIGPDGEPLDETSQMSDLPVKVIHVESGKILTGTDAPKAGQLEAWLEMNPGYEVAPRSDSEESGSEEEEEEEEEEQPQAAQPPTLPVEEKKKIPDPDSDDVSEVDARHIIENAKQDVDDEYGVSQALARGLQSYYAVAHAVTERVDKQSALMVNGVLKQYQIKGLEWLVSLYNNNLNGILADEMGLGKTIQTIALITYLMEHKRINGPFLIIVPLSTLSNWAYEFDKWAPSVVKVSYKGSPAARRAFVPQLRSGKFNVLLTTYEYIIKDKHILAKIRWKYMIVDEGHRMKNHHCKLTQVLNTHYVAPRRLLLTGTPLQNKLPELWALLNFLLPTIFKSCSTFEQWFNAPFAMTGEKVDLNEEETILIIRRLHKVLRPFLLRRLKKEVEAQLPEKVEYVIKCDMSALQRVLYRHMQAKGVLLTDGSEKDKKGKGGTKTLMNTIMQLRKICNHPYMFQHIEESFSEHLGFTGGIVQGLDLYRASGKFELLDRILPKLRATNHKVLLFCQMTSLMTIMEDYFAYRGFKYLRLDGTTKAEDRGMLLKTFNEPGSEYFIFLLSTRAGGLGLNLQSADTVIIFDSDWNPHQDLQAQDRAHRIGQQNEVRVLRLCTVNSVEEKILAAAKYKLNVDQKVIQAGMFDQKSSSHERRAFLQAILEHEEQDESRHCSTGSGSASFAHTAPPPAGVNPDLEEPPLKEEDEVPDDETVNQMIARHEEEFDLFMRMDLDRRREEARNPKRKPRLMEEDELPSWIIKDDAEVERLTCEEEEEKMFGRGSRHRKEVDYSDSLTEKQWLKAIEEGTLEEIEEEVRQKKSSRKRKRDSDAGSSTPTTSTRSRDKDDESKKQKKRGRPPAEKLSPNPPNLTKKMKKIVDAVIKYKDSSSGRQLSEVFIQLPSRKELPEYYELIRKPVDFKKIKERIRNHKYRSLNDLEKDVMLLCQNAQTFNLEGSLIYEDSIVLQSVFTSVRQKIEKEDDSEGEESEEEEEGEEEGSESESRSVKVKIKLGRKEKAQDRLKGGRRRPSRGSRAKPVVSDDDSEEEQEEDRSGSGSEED

Row | Compound | IC50 [1, 3] | Emax ([1]; 30 nM BRG-1, 400 μM ATP) | BRM Max % Inhibition ([2]; 30 nM BRM, 400 μM ATP) | IC50 [2, 4] | IC50 ([1]; read-out: BRG1 IC50 (μM)*) | Emax [1] | BRM Max % Inhibition [2] | IC50 ([2]; read-out: BRM IC50 (μM)*) | IC50 ([1]; BRG1 IC50 (μM)*) | IC50 ([2]; BRM IC50 (μM)*)
1 | Cc1nccc(-c2cccc(-c3csc(NC(=O)CNC(=O)c4cccc(S(=O)(=O)C(C)C)c4)n3)c2)n1 [Compound 13, 3-(isopropylsulfonyl)-N-(2-((4-(3-(2-methylpyrimidin-4-yl)phenyl)thiazol-2-yl)amino)-2-oxoethyl)benzamide] |  |  |  |  | < 0.1 µM | > 95% | >95% | < 0.1 µM |  | 
2 | CC(C)S(=O)(=O)c1cccc(C(=O)NCC(=O)Nc2nc(-c3cccc(N4C[C@@H](C)O[C@@H](C)C4)c3)cs2)c1 [Compound 14, N-(2-((4-(3-((2S,6R)-2,6-dimethylmorpholino)phenyl)thiazol-2-yl)amino)-2-oxoethyl)-3-(isopropylsulfonyl)benzamide] |  |  |  |  | 0.1 to 1 µM | > 80% | >95% | < 0.1 µM |  | 
3 | CC(C)S(=O)(=O)c1cc(CO)cc(C(=O)NCC(=O)Nc2nc(-c3cccc(-c4ccncc4)c3)cs2)c1 [Compound 15, 3-(hydroxymethyl)-5-(isopropylsulfonyl)-N-(2-oxo-2-((4-(3-(pyridin-4-yl)phenyl)thiazol-2-yl)amino)ethyl)benzamide] |  |  |  |  | > 5 µM | > 40% | >50% | 1 to 5 µM |  | 
4 | Cc1cc(C(=O)NCC(=O)Nc2nc(-c3cccc(-c4ccncc4)c3)cs2)cc(S(=O)(=O)C(C)C)c1C [Compound 16, 3-(isopropylsulfonyl)-4,5-dimethyl-N-(2-oxo-2-((4-(3-(pyridin-4-yl)phenyl)thiazol-2-yl)amino)ethyl)benzamide] |  |  |  |  | > 5 µM | < 30% | >70% | 0.1 to 1 µM |  | 
5 | CC(C)S(=O)(=O)c1cccc(C(=O)NCC(=O)Nc2nc(-c3cccc(CO[C@H]4CC[C@H](O)CC4)c3)cs2)c1 [Compound 17, N-(2-((4-(3-((((1R,4R)-4-hydroxycyclohexyl)oxy)methyl)phenyl)thiazol-2-yl)amino)-2-oxoethyl)-3-(isopropylsulfonyl)benzamide] |  |  |  |  | > 5 µM | > 60% | >90% | 0.1 to 1 µM |  | 
6 | Cc1cc(-c2cccc(-c3csc(NC(=O)CNC(=O)c4cccc(S(=O)(=O)C(C)C)c4)n3)c2)cc(C)n1 [Compound 18, N-(2-((4-(3-(2,6-dimethylpyridin-4-yl)phenyl)thiazol-2-yl)amino)-2-oxoethyl)-3-(isopropylsulfonyl)benzamide] |  |  |  |  | < 0.1 µM | > 95% | >95% | < 0.1 µM |  | 
7 | CC(C)S(=O)(=O)c1cccc(C(=O)NCC(=O)Nc2nc(-c3cccc(-c4ccnc(C(F)(F)F)c4)c3)cs2)c1 [Compound 19, 3-(isopropylsulfonyl)-N-(2-oxo-2-((4-(3-(2-(trifluoromethyl)pyridin-4-yl)phenyl)thiazol-2-yl)amino)ethyl)benzamide] |  |  |  |  | 1 to 5 µM |  | >90% | 0.1 to 1 µM |  | 
8 | Cc1cc(C(=O)NCC(=O)Nc2nc(-c3cccc(-c4ccncc4)c3)cs2)cc(S(=O)(=O)C(C)C)c1 [Compound 20, 3-(isopropylsulfonyl)-5-methyl-N-(2-oxo-2-((4-(3-(pyridin-4-yl)phenyl)thiazol-2-yl)amino)ethyl)benzamide] |  |  |  |  | > 5 µM | < 30% | >60% | 0.1 to 1 µM |  | 
9 | CC(C)S(=O)(=O)c1cccc(C(=O)NCC(=O)Nc2nc(-c3cccc(-c4ccnc(N)c4)c3)cs2)c1 [Compound 22, N-(2-((4-(3-(2-aminopyridin-4-yl)phenyl)thiazol-2-yl)amino)-2-oxoethyl)-3-(isopropylsulfonyl)benzamide] |  |  |  |  |  |  | >95% |  | 0.1 to 1 µM | < 0.1 µM
10 | CC(C)S(=O)(=O)c1cccc(C(=O)NCC(=O)Nc2nc(-c3cccc(-c4cccc(C#N)c4)c3)cs2)c1 [Compound 24, N-(2-((4-(3′-cyano-[1,1′-biphenyl]-3-yl)thiazol-2-yl)amino)-2-oxoethyl)-3-(isopropylsulfonyl)benzamide] |  |  |  |  | 1 to 5 µM |  | >90% | 0.1 to 1 µM |  | 
11 | CC(C)S(=O)(=O)c1cccc(C(=O)NCC(=O)Nc2nc(-c3cccc(-c4ccnc(CO)c4)c3)cs2)c1 [Compound 26, N-(2-((4-(3-(2-(hydroxymethyl)pyridin-4-yl)phenyl)thiazol-2-yl)amino)-2-oxoethyl)-3-(isopropylsulfonyl)benzamide] |  |  |  |  | 0.1 to 1 µM |  | >90% | < 0.1 µM |  | 
12 | CC(C)S(=O)(=O)c1cccc(C(=O)NCC(=O)Nc2nc(-c3cccc(-c4cc(CO)cc(C(F)(F)F)c4)c3)cs2)c1 [Compound 27, N-(2-((4-(3′-(hydroxymethyl)-5′-(trifluoromethyl)-[1,1′-biphenyl]-3-yl)thiazol-2-yl)amino)-2-oxoethyl)-3-(isopropylsulfonyl)benzamide] |  |  |  |  | 0.1 to 1 µM |  | >95% | < 0.1 µM |  | 
13 | CC(C)S(=O)(=O)c1cccc(C(=O)NCC(=O)Nc2nc(-c3cccc(-c4cccc(Cl)c4)c3)cs2)c1 [Compound 28, N-(2-((4-(3′-chloro-[1,1′-biphenyl]-3-yl)thiazol-2-yl)amino)-2-oxoethyl)-3-(isopropylsulfonyl)benzamide] |  |  |  |  |  |  | >80% |  | 1 to 5 µM | 0.1 to 1 µM
14 | COc1cc(-c2cccc(-c3csc(NC(=O)CNC(=O)c4cccc(S(=O)(=O)C(C)C)c4)n3)c2)ccn1 [Compound 29, 3-(isopropylsulfonyl)-N-(2-((4-(3-(2-methoxypyridin-4-yl)phenyl)thiazol-2-yl)amino)-2-oxoethyl)benzamide] |  |  |  |  | 0.1 to 1 µM |  | >90% | 0.1 to 1 µM |  | 
15 | CC(C)S(=O)(=O)c1cccc(C(=O)NCC(=O)Nc2nc(-c3cccc(-c4cc(Cl)cc(Cl)c4)c3)cs2)c1 [Compound 30, N-(2-((4-(3′,5′-dichloro-[1,1′-biphenyl]-3-yl)thiazol-2-yl)amino)-2-oxoethyl)-3-(isopropylsulfonyl)benzamide] |  |  |  |  | 1 to 5 µM |  | >90% | 0.1 to 1 µM |  | 

Now from value to molecule, other results behind:

Row | IC50 [1, 3] | Emax ([1]; 30 nM BRG-1, 400 μM ATP) | BRM Max % Inhibition ([2]; 30 nM BRM, 400 μM ATP) | IC50 [2, 4] | IC50 ([1]; read-out: BRG1 IC50 (μM)*) | Emax [1] | BRM Max % Inhibition [2] | IC50 ([2]; read-out: BRM IC50 (μM)*) | Compound | IC50 ([1]; BRG1 IC50 (μM)*) | IC50 ([2]; BRM IC50 (μM)*)
16 | < 0.1 µM | > 95% | >95% | < 0.1 µM |  |  |  |  | CC1(C#N)CCOc2ccc(C(=O)NCC(=O)Nc3nc(-c4cccc(-c5ccncc5)c4)cs3)cc21 (stereo in doubt) [Compound 440, (S)-4-cyano-4-methyl-N-(2-oxo-2-((4-(3-(pyridin-4-yl)phenyl)thiazol-2-yl)amino)ethyl)chromane-6-carboxamide] |  | 
17 | > 5 µM | > 90% | >90% | 0.1 to 1 µM |  |  |  |  | C[C@@H]1CN(c2cccc(-c3csc(NC(=O)CNC(=O)c4cccc(C5(F)CCOC5)c4)n3)n2)C[C@H](C)O1 (stereo in doubt) [Compound 441, N-(2-((4-(6-((cis)-2,6-dimethylmorpholino)pyridin-2-yl)thiazol-2-yl)amino)-2-oxoethyl)-3-((R)-3-fluorotetrahydrofuran-3-yl)benzamide] |  | 
18 | 0.1 to 1 µM | > 95% | >95% | < 0.1 µM |  |  |  |  | CC1(C#N)CCOc2ccc(C(=O)NCC(=O)Nc3nc(-c4cccc(C(F)F)c4)cs3)cc21 (stereo in doubt) [Compound 442, (S)-4-cyano-N-(2-((4-(3-(difluoromethyl)phenyl)thiazol-2-yl)amino)-2-oxoethyl)-4-methylchromane-6-carboxamide] |  | 
19 |  |  |  |  | 1 to 5 µM | > 70% | >80% | 0.1 to 1 µM | CC(C)S(=O)(=O)c1cccc(C(=O)NCC(=O)Nc2nc(-c3cccc(-c4cc(C#N)cc(C#N)c4)c3)cs2)c1 [Compound 21, N-(2-((4-(3′,5′-dicyano-[1,1′-biphenyl]-3-yl)thiazol-2-yl)amino)-2-oxoethyl)-3-(isopropylsulfonyl)benzamide] |  | 
20 |  |  |  |  | 0.1 to 1 µM | > 80% | >90% | 0.1 to 1 µM | CC(C)S(=O)(=O)c1cccc(C(=O)NCC(=O)Nc2nc(-c3cccc(-c4cc(C#N)cc(CO)c4)c3)cs2)c1 [Compound 23, N-(2-((4-(3′-cyano-5′-(hydroxymethyl)-[1,1′-biphenyl]-3-yl)thiazol-2-yl)amino)-2-oxoethyl)-3-(isopropylsulfonyl)benzamide] |  | 
21 |  |  |  |  | 0.1 to 1 µM | > 80% | >90% | < 0.1 µM | CC(=O)N(C)c1cc(-c2cccc(-c3csc(NC(=O)CNC(=O)c4cccc(S(=O)(=O)C(C)C)c4)n3)c2)ccn1 [Compound 25, 3-(isopropylsulfonyl)-N-(2-((4-(3-(2-(N-methylacetamido)pyridin-4-yl)phenyl)thiazol-2-yl)amino)-2-oxoethyl)benzamide] |  | 
22 |  |  |  |  | 1 to 5 µM | > 70% | >90% | 0.1 to 1 µM | CC(C)S(=O)(=O)c1cccc(C(=O)NCC(=O)Nc2nc(-c3cccc(-c4cccc(CN)c4)c3)cs2)c1 [Compound 31, N-(2-((4-(3′-(aminomethyl)-[1,1′-biphenyl]-3-yl)thiazol-2-yl)amino)-2-oxoethyl)-3-(isopropylsulfonyl)benzamide] |  | 
23 |  |  |  |  | 0.1 to 1 µM | > 80% | >95% | 0.1 to 1 µM | COC[C@H](NC(=O)c1cccc(S(=O)(=O)C(C)C)c1)C(=O)Nc1nc(-c2cccc(-c3ccnc(C)c3)c2)cs1 [Compound 32, (S)-3-(isopropylsulfonyl)-N-(3-methoxy-1-((4-(3-(2-methylpyridin-4-yl)phenyl)thiazol-2-yl)amino)-1-oxopropan-2-yl)benzamide] |  | 
